The text below walks through data of paper PMC8398766, “Do Small Molecules Activate the TrkB Receptor in the Same Manner as BDNF? Limitations of Published TrkB Low Molecular Agonists and Screening for Novel TrkB Orthosteric Agonists” (Pharmaceuticals, 2021).

The target in one assay is T1, RARα (Homo sapiens, UniProt P10276).
T1 construct: purchased Eurofins Discovery (Cerep) BioPrint Profile Panel
Kind of assay: BioPrint Profile Panel. It is filed as binding. Conditions: Agonist, Receptor, read-out: % of specific inhibition. From the text:
(§1) The BioPrint® Profile Panel service offered by Eurofins Discovery (Poitiers, France) was chosen to perform selectivity analysis.

Another assay concerns sigma. Description: BioPrint Profile Panel. It is filed as binding. Conditions: 10 μM; Agonist; Receptor.
Excerpt: as §1

The next assay has as its target T2, M1 (Homo sapiens, UniProt P11229).
T2 construct: purchased Eurofins Discovery (Cerep) BioPrint Profile Panel
Description: BioPrint Profile Panel. Type of assay: binding. The settings on record: Antagonist, Receptor, read-out: % of specific inhibition.
Excerpt: as §1

The next assay addresses T3, PPARγ (Homo sapiens, UniProt P37231).
T3 construct: purchased Eurofins Discovery (Cerep) BioPrint Profile Panel
Kind of assay: BioPrint Profile Panel. It is filed as binding. Conditions: Agonist, Receptor, read-out: % of specific inhibition.
Excerpt: as §1

Another assay has as its target T4, AR (Homo sapiens, UniProt P10275, T878A).
T4 construct: purchased Eurofins Discovery (Cerep) BioPrint Profile Panel
Kind of assay: BioPrint Profile Panel. The settings on record: Agonist, Receptor, read-out: % of specific inhibition. It is filed as binding.
Excerpt: as §1

The target in the next assay is T5, sst4 (Homo sapiens, UniProt P31391).
T5 construct: purchased Eurofins Discovery (Cerep) BioPrint Profile Panel
T5 sequence (P31391 whole entry): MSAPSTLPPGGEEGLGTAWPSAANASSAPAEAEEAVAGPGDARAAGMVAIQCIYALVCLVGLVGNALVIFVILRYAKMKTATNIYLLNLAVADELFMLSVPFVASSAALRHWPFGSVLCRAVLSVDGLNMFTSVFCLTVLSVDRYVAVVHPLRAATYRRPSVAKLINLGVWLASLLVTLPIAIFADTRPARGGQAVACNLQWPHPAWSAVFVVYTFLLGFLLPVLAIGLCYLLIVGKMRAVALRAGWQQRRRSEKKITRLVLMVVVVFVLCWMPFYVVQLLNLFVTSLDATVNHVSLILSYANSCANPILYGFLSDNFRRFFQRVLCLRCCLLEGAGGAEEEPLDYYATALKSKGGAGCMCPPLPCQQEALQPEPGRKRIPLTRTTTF
Kind of assay: BioPrint Profile Panel. Type of assay: binding. The settings on record: Agonist, Receptor, read-out: % of specific inhibition.
Excerpt: as §1

A further assay addresses T6, AT2 (Homo sapiens, UniProt P50052).
T6 construct: purchased Eurofins Discovery (Cerep) BioPrint Profile Panel
Kind of assay: BioPrint Profile Panel. Type of assay: binding. Conditions: Agonist, Receptor, read-out: % of specific inhibition.
Excerpt: as §1

For the next assay, the target named is T7, V1a (Homo sapiens, UniProt P37288).
T7 construct: purchased Eurofins Discovery (Cerep) BioPrint Profile Panel
Description: BioPrint Profile Panel. It is filed as binding. Conditions: Agonist, Receptor, read-out: % of specific inhibition.
Excerpt: as §1

A further assay deals with T8, MC1 (Mus musculus, UniProt Q01727).
T8 construct: purchased Eurofins Discovery (Cerep) BioPrint Profile Panel
Kind of assay: BioPrint Profile Panel. It is filed as binding. The settings on record: Agonist, Receptor, read-out: % of specific inhibition.
Excerpt: as §1

Another assay deals with T9, M4 (Homo sapiens, UniProt P08173).
T9 construct: purchased Eurofins Discovery (Cerep) BioPrint Profile Panel
T9 sequence (P08173 whole entry): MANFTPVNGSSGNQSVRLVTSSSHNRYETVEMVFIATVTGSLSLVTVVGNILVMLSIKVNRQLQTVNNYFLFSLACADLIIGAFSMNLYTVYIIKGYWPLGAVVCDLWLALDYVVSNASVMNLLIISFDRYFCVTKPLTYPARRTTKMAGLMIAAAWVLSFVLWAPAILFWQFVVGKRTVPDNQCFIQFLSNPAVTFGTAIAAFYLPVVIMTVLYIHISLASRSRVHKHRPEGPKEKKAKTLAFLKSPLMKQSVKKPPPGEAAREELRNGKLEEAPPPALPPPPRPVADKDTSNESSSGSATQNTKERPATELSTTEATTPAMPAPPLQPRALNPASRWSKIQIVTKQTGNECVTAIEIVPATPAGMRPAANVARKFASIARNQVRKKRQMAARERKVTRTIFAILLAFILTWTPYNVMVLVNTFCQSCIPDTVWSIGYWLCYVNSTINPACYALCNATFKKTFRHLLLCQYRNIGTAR
Kind of assay: BioPrint Profile Panel. The settings on record: Antagonist, Receptor, read-out: % of specific inhibition. It is filed as binding.
Excerpt: as §1

Another assay concerns kappa. Description: BioPrint Profile Panel. Conditions: 10 μM; Agonist; Receptor. It is filed as binding.
Excerpt: as §1

The next assay has as its target T10, H1 (Homo sapiens, UniProt P35367).
T10 construct: purchased Eurofins Discovery (Cerep) BioPrint Profile Panel
Kind of assay: BioPrint Profile Panel. It is filed as binding. Conditions: Antagonist, Receptor, read-out: % of specific inhibition.
Excerpt: as §1

The next assay has as its target T11, sst1 (Homo sapiens, UniProt P30872).
T11 construct: purchased Eurofins Discovery (Cerep) BioPrint Profile Panel
Description: BioPrint Profile Panel. It is filed as binding. Conditions: Agonist, Receptor, read-out: % of specific inhibition.
Excerpt: as §1

The next assay addresses T12, ETB (Homo sapiens, UniProt P24530).
T12 construct: purchased Eurofins Discovery (Cerep) BioPrint Profile Panel
Kind of assay: BioPrint Profile Panel. It is filed as binding. Conditions: Agonist, Receptor, read-out: % of specific inhibition.
Excerpt: as §1

Another assay concerns the target T13, A3 (Homo sapiens, UniProt P0DMS8).
T13 construct: purchased Eurofins Discovery (Cerep) BioPrint Profile Panel
Description: BioPrint Profile Panel. It is filed as binding. Conditions: Agonist, Receptor.
Excerpt: as §1

The target in a further assay is T14, D3 (Homo sapiens, UniProt P35462).
T14 construct: purchased Eurofins Discovery (Cerep) BioPrint Profile Panel
Kind of assay: BioPrint Profile Panel. It is filed as binding. Conditions: Antagonist, Receptor, read-out: % of specific inhibition.
Excerpt: as §1

The target of a further assay is T15, 5-HT1D (Rattus norvegicus, UniProt P28565).
T15 construct: purchased Eurofins Discovery (Cerep) BioPrint Profile Panel
Kind of assay: BioPrint Profile Panel. Type of assay: binding. Conditions: Agonist, Receptor, read-out: % of specific inhibition.
Excerpt: as §1

The next assay concerns the target T16, MCH1 (Homo sapiens, UniProt Q99705).
T16 construct: purchased Eurofins Discovery (Cerep) BioPrint Profile Panel
Kind of assay: BioPrint Profile Panel. Type of assay: binding. The settings on record: Agonist, Receptor, read-out: % of specific inhibition.
Excerpt: as §1

The target in a further assay is T17, β3 (Homo sapiens, UniProt P13945).
T17 construct: purchased Eurofins Discovery (Cerep) BioPrint Profile Panel
Kind of assay: BioPrint Profile Panel. Type of assay: binding. The settings on record: Antagonist, Receptor, read-out: % of specific inhibition.
Excerpt: as §1

For another assay, the target named is T18, D2S (Homo sapiens, UniProt P14416).
T18 construct: purchased Eurofins Discovery (Cerep) BioPrint Profile Panel
Description: BioPrint Profile Panel. It is filed as binding. Conditions: Agonist, Receptor, read-out: % of specific inhibition.
Excerpt: as §1

A further assay deals with Na+ channel. Kind of assay: BioPrint Profile Panel. Type of assay: binding. The settings on record: 10 μM; Antagonist; Ion Channel.
Excerpt: as §1

The next assay has as its target T19, APJ (apelin) (Homo sapiens, UniProt P35414).
T19 construct: purchased Eurofins Discovery (Cerep) BioPrint Profile Panel
Kind of assay: BioPrint Profile Panel. It is filed as binding. The settings on record: Agonist, Receptor, read-out: % of specific inhibition.
Excerpt: as §1

A further assay relates to N muscle-type. Kind of assay: BioPrint Profile Panel. Type of assay: binding. The settings on record: 10 μM; Antagonist; Receptor.
Excerpt: as §1

In the next assay the target is T20, β2 (Homo sapiens, UniProt P07550).
T20 construct: purchased Eurofins Discovery (Cerep) BioPrint Profile Panel
Description: BioPrint Profile Panel. Type of assay: binding. Conditions: Antagonist, Receptor, read-out: % of specific inhibition.
Excerpt: as §1

The target of a further assay is T21, MT1 (ML1A) (Homo sapiens, UniProt P48039).
T21 construct: purchased Eurofins Discovery (Cerep) BioPrint Profile Panel
T21 sequence (P48039 whole entry): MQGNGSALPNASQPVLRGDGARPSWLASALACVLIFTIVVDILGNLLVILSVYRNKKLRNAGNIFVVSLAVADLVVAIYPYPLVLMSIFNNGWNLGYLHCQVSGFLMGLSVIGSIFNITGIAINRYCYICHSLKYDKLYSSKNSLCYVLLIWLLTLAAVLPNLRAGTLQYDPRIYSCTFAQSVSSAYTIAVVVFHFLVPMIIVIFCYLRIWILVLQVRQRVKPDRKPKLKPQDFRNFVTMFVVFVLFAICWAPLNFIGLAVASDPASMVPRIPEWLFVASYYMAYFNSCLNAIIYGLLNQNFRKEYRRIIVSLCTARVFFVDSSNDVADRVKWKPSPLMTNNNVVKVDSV
Description: BioPrint Profile Panel. Type of assay: binding. The settings on record: Agonist, Receptor, read-out: % of specific inhibition.
Excerpt: as §1

Another assay addresses T22, NOP (ORL1) (Homo sapiens, UniProt P41146).
T22 construct: purchased Eurofins Discovery (Cerep) BioPrint Profile Panel
Kind of assay: BioPrint Profile Panel. Type of assay: binding. Conditions: Agonist, Receptor, read-out: % of specific inhibition.
Excerpt: as §1

The target of the next assay is T23, A2B (Homo sapiens, UniProt P29275).
T23 construct: purchased Eurofins Discovery (Cerep) BioPrint Profile Panel
T23 sequence (P29275 whole entry): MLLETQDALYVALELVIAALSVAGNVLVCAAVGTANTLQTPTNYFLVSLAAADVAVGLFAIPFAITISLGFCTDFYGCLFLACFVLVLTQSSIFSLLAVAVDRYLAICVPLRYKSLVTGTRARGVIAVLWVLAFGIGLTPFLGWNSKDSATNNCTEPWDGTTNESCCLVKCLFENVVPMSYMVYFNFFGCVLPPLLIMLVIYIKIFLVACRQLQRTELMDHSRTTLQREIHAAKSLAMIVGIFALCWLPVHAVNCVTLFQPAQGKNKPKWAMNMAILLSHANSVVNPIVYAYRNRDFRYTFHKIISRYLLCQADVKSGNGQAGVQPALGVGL
Description: BioPrint Profile Panel. Type of assay: binding. The settings on record: Antagonist, Receptor.
Excerpt: as §1

The next assay concerns the target T24, α2C (Homo sapiens, UniProt P18825).
T24 construct: purchased Eurofins Discovery (Cerep) BioPrint Profile Panel
Kind of assay: BioPrint Profile Panel. Type of assay: binding. The settings on record: Antagonist, Receptor, read-out: % of specific inhibition.
Excerpt: as §1

A further assay deals with T25, ẟ(DOP) (Homo sapiens, UniProt P41143).
T25 construct: purchased Eurofins Discovery (Cerep) BioPrint Profile Panel
Description: BioPrint Profile Panel. Type of assay: binding. The settings on record: Agonist, Receptor, read-out: % of specific inhibition.
Excerpt: as §1

In another assay the target is T26, α2A (Homo sapiens, UniProt P08913).
T26 construct: purchased Eurofins Discovery (Cerep) BioPrint Profile Panel
Kind of assay: BioPrint Profile Panel. It is filed as binding. The settings on record: Antagonist, Receptor, read-out: % of specific inhibition.
Excerpt: as §1

For another assay, the target named is T27, H4 (Homo sapiens, UniProt Q9H3N8).
T27 construct: purchased Eurofins Discovery (Cerep) BioPrint Profile Panel
Kind of assay: BioPrint Profile Panel. Conditions: Agonist, Receptor, read-out: % of specific inhibition. It is filed as binding.
Excerpt: as §1

Another assay deals with T28, CRF1 (Homo sapiens, UniProt P34998).
T28 construct: purchased Eurofins Discovery (Cerep) BioPrint Profile Panel
Kind of assay: BioPrint Profile Panel. Type of assay: binding. Conditions: Agonist, Receptor, read-out: % of specific inhibition.
Excerpt: as §1

For the next assay, the target named is T29, Estrogen Erα (Homo sapiens, UniProt P03372).
T29 construct: purchased Eurofins Discovery (Cerep) BioPrint Profile Panel
Kind of assay: BioPrint Profile Panel. The settings on record: Agonist, Receptor, read-out: % of specific inhibition. Type of assay: binding.
Excerpt: as §1

Another assay has as its target T30, LXRβ (Homo sapiens, UniProt P55055).
T30 construct: purchased Eurofins Discovery (Cerep) BioPrint Profile Panel
Description: BioPrint Profile Panel. Type of assay: binding. Conditions: Agonist, Receptor, read-out: % of specific inhibition.
Excerpt: as §1

Another assay deals with kainate. Kind of assay: BioPrint Profile Panel. It is filed as binding. The settings on record: 10 μM; Agonist; Ion Channel.
Excerpt: as §1

A further assay deals with T31, V2 (Homo sapiens, UniProt P30518).
T31 construct: purchased Eurofins Discovery (Cerep) BioPrint Profile Panel
T31 sequence (P30518 whole entry): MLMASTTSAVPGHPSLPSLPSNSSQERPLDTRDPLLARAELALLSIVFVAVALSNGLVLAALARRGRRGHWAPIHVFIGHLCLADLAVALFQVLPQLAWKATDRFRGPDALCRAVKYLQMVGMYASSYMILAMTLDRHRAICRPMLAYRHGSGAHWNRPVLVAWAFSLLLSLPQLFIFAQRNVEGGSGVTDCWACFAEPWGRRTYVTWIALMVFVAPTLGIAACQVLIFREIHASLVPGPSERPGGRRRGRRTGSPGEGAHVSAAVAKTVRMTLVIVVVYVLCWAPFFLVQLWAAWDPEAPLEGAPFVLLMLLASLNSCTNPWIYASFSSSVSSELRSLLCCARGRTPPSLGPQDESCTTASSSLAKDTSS
Description: BioPrint Profile Panel. Type of assay: binding. The settings on record: Agonist, Receptor, read-out: % of specific inhibition.
Excerpt: as §1

In another assay the target is T32, MC3 (Homo sapiens, UniProt P41968).
T32 construct: purchased Eurofins Discovery (Cerep) BioPrint Profile Panel
Description: BioPrint Profile Panel. Type of assay: binding. The settings on record: Agonist, Receptor, read-out: % of specific inhibition.
Excerpt: as §1

In the next assay the target is T33, motilin (Homo sapiens, UniProt O43193).
T33 construct: purchased Eurofins Discovery (Cerep) BioPrint Profile Panel
Description: BioPrint Profile Panel. Type of assay: binding. Conditions: Agonist, Receptor, read-out: % of specific inhibition.
Excerpt: as §1

The next assay deals with T34, exTrkB (Homo sapiens, UniProt Q16620).
T34 construct: human TrkB receptor (exTrkB), residues 1−430, was cloned into the pCMV2 expression vector; made in house; host or cells: ExpiCHO-S cells
Description: Ligand-induced exTrkB dimerization assay (native electrophoresis). Type of assay: biochemical. The settings on record: exTrkB:ligand 1:1, non-reducing conditions. How it is done:
The native exTrkB, BDNF, and tested compounds were separately diluted with PBS (pH 7.4) to a final concentration of 2.5 μM. Then, exTrkB, BDNF, or the tested compound were mixed (1:1 v/v) and incubated at 25 °C for 10 min, and 2X Sample Buffer (0.6 M Tris, 20% glycerol, 0.02% Bromophenol Blue, pH 6.8) was added to the samples. Afterwards, the samples were loaded into Stain-Free gels (10% Mini-PROTEAN® TGX Stain-Free™ Protein Gels; Bio-Rad, Hercules, CA, USA) and separated in non-reducing conditions using SDS-free electrophoresis buffer (192 mM glycine, 25 mM Tris; pH 8.3). Visualization of the protein bands was performed using a ChemiDoc MP Imaging System (Bio-Rad).

[1] abbreviates: read-out: % Inhibition of Control Specific Binding.

T13 sequence (P0DMS8 whole entry): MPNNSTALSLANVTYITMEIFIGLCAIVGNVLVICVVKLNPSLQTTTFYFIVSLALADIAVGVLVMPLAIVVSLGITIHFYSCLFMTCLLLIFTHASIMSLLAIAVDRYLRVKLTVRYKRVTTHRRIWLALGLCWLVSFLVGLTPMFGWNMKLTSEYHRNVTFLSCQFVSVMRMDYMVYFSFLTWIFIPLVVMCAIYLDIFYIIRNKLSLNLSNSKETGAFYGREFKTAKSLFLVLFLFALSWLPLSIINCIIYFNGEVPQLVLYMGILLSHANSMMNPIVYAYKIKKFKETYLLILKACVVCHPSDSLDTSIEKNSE
T2 sequence (P11229 whole entry): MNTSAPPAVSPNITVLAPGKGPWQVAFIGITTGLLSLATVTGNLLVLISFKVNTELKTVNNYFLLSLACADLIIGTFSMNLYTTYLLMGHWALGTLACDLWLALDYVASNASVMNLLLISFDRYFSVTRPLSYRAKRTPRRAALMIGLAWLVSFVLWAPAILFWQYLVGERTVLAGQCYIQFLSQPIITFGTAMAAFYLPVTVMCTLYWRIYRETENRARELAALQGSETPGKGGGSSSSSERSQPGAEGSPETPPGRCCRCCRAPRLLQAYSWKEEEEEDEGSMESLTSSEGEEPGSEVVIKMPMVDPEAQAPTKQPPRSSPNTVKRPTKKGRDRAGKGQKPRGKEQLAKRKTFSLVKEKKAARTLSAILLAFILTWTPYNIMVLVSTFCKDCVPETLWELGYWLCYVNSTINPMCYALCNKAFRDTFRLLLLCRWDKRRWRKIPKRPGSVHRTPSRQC
T16 sequence (Q99705 whole entry): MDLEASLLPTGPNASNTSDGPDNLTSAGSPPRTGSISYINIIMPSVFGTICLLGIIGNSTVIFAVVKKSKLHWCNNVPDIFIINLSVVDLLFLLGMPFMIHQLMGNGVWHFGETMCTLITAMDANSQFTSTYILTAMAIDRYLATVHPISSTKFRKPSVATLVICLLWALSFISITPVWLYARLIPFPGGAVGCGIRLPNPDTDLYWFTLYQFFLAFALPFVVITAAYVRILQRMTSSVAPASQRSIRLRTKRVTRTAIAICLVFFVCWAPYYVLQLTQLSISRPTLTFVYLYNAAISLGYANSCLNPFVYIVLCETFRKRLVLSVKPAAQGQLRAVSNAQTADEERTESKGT
T11 sequence (P30872 whole entry): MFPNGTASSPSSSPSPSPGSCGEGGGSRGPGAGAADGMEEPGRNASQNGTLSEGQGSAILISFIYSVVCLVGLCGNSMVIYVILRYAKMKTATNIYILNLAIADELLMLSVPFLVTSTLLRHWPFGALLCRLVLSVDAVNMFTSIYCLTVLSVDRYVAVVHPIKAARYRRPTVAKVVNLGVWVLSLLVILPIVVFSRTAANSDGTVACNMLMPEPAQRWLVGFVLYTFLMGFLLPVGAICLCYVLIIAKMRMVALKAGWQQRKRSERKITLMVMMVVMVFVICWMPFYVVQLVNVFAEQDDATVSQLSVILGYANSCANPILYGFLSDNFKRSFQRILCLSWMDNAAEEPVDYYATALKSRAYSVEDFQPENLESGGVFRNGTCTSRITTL
T12 sequence (P24530 27-442): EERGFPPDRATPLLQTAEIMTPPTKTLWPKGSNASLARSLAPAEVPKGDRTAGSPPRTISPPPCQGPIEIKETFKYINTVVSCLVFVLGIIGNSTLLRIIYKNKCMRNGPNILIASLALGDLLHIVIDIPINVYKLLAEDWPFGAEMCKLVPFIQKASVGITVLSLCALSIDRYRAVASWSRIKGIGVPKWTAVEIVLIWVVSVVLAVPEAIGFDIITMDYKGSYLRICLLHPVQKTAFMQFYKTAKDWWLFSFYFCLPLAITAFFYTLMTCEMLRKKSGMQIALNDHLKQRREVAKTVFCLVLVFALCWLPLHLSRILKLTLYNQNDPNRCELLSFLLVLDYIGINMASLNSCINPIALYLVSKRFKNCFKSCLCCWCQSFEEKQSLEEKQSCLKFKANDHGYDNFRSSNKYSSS
T30 sequence (P55055 whole entry): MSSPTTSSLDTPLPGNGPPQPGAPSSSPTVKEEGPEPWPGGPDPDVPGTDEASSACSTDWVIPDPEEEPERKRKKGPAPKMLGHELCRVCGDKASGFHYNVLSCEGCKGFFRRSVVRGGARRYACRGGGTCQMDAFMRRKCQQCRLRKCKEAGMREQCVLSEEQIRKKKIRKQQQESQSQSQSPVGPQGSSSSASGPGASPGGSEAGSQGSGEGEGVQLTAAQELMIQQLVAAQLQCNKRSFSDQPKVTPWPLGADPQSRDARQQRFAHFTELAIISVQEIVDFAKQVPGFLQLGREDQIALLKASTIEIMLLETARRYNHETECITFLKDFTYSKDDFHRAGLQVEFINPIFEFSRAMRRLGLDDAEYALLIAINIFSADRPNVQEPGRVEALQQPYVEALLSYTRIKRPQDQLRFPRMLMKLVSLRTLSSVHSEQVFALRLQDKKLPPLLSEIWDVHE
T19 sequence (P35414 whole entry): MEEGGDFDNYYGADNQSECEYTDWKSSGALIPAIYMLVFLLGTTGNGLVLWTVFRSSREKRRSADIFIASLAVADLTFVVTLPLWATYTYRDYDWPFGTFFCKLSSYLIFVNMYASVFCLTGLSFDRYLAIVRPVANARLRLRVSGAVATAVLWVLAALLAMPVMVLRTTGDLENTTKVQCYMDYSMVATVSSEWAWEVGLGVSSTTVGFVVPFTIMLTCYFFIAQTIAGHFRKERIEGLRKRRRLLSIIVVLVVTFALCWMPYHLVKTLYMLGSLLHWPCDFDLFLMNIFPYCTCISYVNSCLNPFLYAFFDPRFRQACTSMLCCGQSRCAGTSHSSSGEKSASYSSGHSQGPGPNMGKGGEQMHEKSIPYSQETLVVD

Consider `O=c1cc(-c2ccccc2)oc2c(O)c(O)ccc12` [7,8-DHF, 7,8-dihydroxyflavone], for which the inhibition at 10 µM on RARα is -16%; at M1 it was -4%; on PPARγ, 21%; on AR, 0%; at sst4, -23%; at AT2, 6%. The inhibition at 10 µM on V1a is -11%; at MC1, -5%; on M4, -5%; at H1, -5%; at sst1, 2%; at ETB, -26%. Further, the inhibition at 10 µM at A3 (setting [1]) was 68%; at D3, 2%; at 5-HT1D, -8%; at MCH1, -12%; on β3, -25%; on D2S, -15%. Moreover, the inhibition at 10 µM at APJ (apelin) was 4%; on β2 it was -5%; at MT1 (ML1A), 20%; on NOP (ORL1), 11%; on A2B (setting [1]) it was 78%; on α2C it was 1%. Further, the inhibition at 10 µM at ẟ(DOP) was -5%; at α2A, -5%; at H4, -4%; at CRF1 it was 5%; at Estrogen Erα, 7%; on LXRβ, 49%. Further, the inhibition at 10 µM on V2 was -2%; at MC3 it was -5%; at motilin, -2%. For the same molecule, the “% of specific inhibition” value with sigma is reported as 3%; with kappa, 3%; in the assay on Na+ channel, -11%; with N muscle-type it was -20%; with kainate, 26%. For the same molecule, the “% Inhibition of Control Specific Binding” value at A3 (10 μM) is 68.2%; on A2B (10 μM), 78.3%.

B1: BDNF: Brain-derived neurotrophic factor, endogenous TrkB receptor agonist (protein, UniProt P23560 19-247, looked up)
Neurotrophic factor BDNF …: APMKEANIRGQGGLAYPGVRTHGTLESVNGPKAGSRGLTSLADTFEHVIEELLDEDQKVRPNEENNKDADLYTSRVMLSSQVPLEPPLLFLLEEYKNYLDAANMSMRVRRHSDPARRGELSVCDSISEWVTAADKKTAVDMSGGTVTVLEKVPVSKGQLKQYFYETKCNPMGYTKEGCRGIDKRHWNSQCRTTQSYVRALTMDSKKRIGWRFIRIDTSCVCTLTIKRGR
Regarding B1, the “TrkB Dimerization” value with exTrkB is reported as “YES”.
